For this assay, the target named is T1, pAXL (Homo sapiens, UniProt P30530).
T1 construct: AML blasts were identified within the peripheral blood mononuclear cell population by CyTOF; endogenous in cells
T1 sequence (P30530 26-894): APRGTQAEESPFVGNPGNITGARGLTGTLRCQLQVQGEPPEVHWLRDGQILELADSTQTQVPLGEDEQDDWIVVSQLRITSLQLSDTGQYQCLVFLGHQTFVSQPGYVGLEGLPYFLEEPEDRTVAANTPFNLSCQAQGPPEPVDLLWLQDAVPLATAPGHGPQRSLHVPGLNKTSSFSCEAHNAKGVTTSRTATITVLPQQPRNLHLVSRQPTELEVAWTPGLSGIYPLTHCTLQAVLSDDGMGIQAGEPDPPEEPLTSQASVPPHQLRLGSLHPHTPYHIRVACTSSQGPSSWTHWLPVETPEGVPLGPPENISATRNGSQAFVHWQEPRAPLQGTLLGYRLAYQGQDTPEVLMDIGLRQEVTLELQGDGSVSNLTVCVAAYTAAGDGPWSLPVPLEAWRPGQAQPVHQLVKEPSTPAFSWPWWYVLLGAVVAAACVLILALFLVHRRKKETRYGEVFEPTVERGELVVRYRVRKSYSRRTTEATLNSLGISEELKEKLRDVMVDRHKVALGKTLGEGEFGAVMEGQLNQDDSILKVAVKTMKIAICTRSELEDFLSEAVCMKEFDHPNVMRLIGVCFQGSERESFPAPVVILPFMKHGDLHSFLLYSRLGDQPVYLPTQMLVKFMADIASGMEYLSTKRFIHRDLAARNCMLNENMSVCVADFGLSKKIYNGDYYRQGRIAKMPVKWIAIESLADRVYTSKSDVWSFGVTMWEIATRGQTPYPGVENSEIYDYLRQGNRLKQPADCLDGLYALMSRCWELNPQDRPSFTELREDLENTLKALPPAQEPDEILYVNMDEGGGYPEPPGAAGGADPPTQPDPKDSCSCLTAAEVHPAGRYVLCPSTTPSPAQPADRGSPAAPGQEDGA
Description: CyTOF maximal pAXL inhibition in AML blasts vs bemcentinib concentration. In kind it is in vivo. From the text:
Pharmacodynamic endpoints included the measurement of inhibition of pAXL, pERK, pAKT, pS6 and pSTAT1/3/5 in blast cells (defined as cells with abnormal surface marker expression as compared to healthy donor peripheral blood mononuclear cells and undefined/immature myeloid cells (defined as cells carrying myeloid markers but lacking distinguishing terminal differentiation markers). Mass cytometry time of flight (CyTOF) was used for the determination of the pharmacodynamic markers using a previously validated and tested panel of mass-tagged antibodies[39],[40]. The antibodies in the panel are listed in Supplementary Table 5. Briefly, fixed leukocytes from peripheral blood were barcoded using a 20-plex metal barcoding kit (Standard Biotools, Cell-ID 201060) according to manufacturer’s protocol, allowing all the samples from a single individual to be stained and analysed in parallel. All analysis runs included barcoded peripheral blood mononuclear cells (PBMCs) from at least one healthy donor and an identical barcoded reference sample (mix of PBMCs from six healthy donors). Barcoded cells (approx. 6 × 10^6) were treated with FC receptor block (Octagam, 1:1000 (Octapharma) in MaxPar cell staining buffer (CSB, Standard Biotools 201068), 15 min, room temperature) and treated with heparin (100 IU/mL in CSB, 20 min) to reduce non-specific staining artefacts. The sample was then stained with an optimised mixture of mass-tagged surface antibodies in a total staining volume of 600 μL (30 min, room temperature). Subsequently, the sample was permeabilized with cold (-20 °C) 100 % methanol (15 min, on ice), re-treated with heparin, and stained with a panel of intracellular mass-tagged antibodies (as described above). DNA was labelled with iridium-191/193 by incubation in 0.1 nM Ir-nucleic acid intercalator (Standard Biotools 201192) diluted in MaxPar PBS (Standard biotools 201058) containing 4% PFA overnight at 4 °C. […]
For each population, marker, and sample, the 95th percentile of the non-transformed expression values was calculated. […]

SMILES strings stand for the structures. Several values for one entry are separate records, joined by “and”; a condition that tells them apart may be missing. Identical values can stand only once.

Regarding `Nc1nc(Nc2ccc3c(c2)CC[C@@H](N2CCCC2)CC3)nn1-c1cc2c(nn1)-c1ccccc1CCC2` [Bemcentinib], where the note is “Figure 4, individual patients (Pt 1-13)”, the “Maximum inhibition (percent) pAXL(Y779)” value was 14.7% and 1.3% and 25.7% and 0.4% and 26.3% and 2.9% and 13.4% and 0% and 16.1% and 15.5% and 11.4% and 7%. Besides, where the note is “peripheral blood, DE cohort”, the “Plasma concentrations at which inhibition of pAXL was seen” value is listed as 45–347 ng/mL and the “Time to intracellular phospho-signaling changes vs pre-treatment” value is on record as no more than 4 h.
